Experimental data: article PMC7649969, “Pyrazolyl-pyrimidones inhibit the function of human solute carrier protein SLC11A2 (hDMT1) by metal chelation” (RSC Medicinal Chemistry, 2020)

Biological target: T1, hDMT1 (SLC11A2) (Homo sapiens, UniProt P49281)
T1 construct: DsRED; expressed in transfected cells
T1 sequence (P49281 1-568): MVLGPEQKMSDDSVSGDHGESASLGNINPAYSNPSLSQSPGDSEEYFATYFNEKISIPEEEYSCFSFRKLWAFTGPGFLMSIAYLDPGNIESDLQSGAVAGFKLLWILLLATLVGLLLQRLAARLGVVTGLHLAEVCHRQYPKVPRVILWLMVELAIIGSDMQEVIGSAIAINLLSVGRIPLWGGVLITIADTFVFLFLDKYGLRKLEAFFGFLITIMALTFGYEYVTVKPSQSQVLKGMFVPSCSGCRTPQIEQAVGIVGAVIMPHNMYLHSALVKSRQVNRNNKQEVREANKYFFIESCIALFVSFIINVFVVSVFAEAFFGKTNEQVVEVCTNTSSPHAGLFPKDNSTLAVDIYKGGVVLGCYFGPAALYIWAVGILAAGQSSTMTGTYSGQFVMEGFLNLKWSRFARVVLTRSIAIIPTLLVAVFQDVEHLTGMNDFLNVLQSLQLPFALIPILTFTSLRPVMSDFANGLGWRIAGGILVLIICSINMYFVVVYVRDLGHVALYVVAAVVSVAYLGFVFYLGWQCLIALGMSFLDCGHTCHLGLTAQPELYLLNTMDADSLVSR
Assay: radioactive iron uptake assay in HEK293 cells stably overexpressing hDMT1
Assay type: cell-based
Conditions: for Ligand efficiency: from IC50 of radioactive iron uptake in HEK293-hDMT1; for IC50: radioactive iron 1 μM, 15 min incubation, extracellular pH 5.5, HEK293 stably overexpressing hDMT1; for inhibition at 10 µM: HEK293, 10 μM compound, radioactive iron uptake, pH 5.5

Row | Ligand efficiency | IC50 | inhibition at 10 µM | Structure (SMILES)
1 | 0.25 |  |  | Cc1cc(C)c(CSC(=N)N)c(C)c1CSC(=N)N [Compound 2, reference compound]
2 | 0.44 | 10 ± 0.4 µM |  | Cc1cc(=O)[nH]c(-n2nc(C)c(C)c2C)n1 [Compound 6]
3 | 0.40 | 4.2 ± 0.4 µM |  | CCc1c(C)nn(-c2nc(C)cc(=O)[nH]2)c1C [Compound 7]
4 |  |  | < 20% | Cc1cc(=O)[nH]c(-n2nc(C)c(-c3ccccc3)c2C)n1 [Compound 8]
5 |  |  | < 20% | Cc1cc(=O)[nH]c(-n2nc(C)c(Cc3ccccc3)c2C)n1 [Compound 9]
6 |  |  | < 20% | Cc1cc(=O)[nH]c(-n2nc(C(C)(C)C)cc2C)n1 [Compound 10]
7 |  |  | < 20% | Cc1cc(=O)[nH]c(-n2nc(-c3ccccc3)cc2C)n1 [Compound 11]
8 |  |  | < 20% | Cc1cc(=O)[nH]c(-n2nc3c(c2C)CCC3)n1 [Compound 12]
9 |  |  | < 20% | Cc1cc(=O)[nH]c(-n2nc3c(c2C)COCC3)n1 [Compound 14]
10 |  |  | < 20% | Cc1cc(=O)[nH]c(-n2nc3c(c2C)CNCC3)n1 [Compound 15]
11 | 0.45 | 3.8 ± 0.2 µM |  | CCc1cc(CC)n(-c2nc(C)cc(=O)[nH]2)n1 [Compound 16]
12 | 0.42 | 2.26 ± 0.3 µM |  | CCc1c2c(nn1-c1nc(C)cc(=O)[nH]1)CCCC2 [Compound 17]
13 | 0.42 | 0.94 ± 0.2 µM |  | Cc1cc(=O)[nH]c(-n2nc3c4c2CCCC4CCC3)n1 (stereo not shown) [Compound 18]
14 | 0.43 | 12.5 ± 0.3 µM |  | Cc1cc(C)n(-c2nc(C)c(C)c(O)n2)n1 [Compound 19]
15 |  |  | < 20% | Cc1cc(C)nc(-n2nc(C)cc2C)n1 [Compound 20]
16 |  |  | < 20% | CCc1cc(=O)n(-c2nc(C)cc(=O)[nH]2)[nH]1 [Compound 21]
17 |  |  | < 20% | Cc1cc(=O)[nH]c(-n2[nH]c(C)c(Cc3ccccc3)c2=O)n1 [Compound 22]
18 |  |  | < 20% | CCc1cc(=O)[nH]c(-n2[nH]c(C)cc2=O)n1 [Compound 24]
19 |  |  | < 20% | CCOC(=O)c1cnc(-n2[nH]c(C)cc2=O)[nH]c1=O [Compound 25]
